# Laboratory results: patent US4242354A, “2-(2-Thenolythio)-propionylglycine: method for its preparation and pharmaceutical formulations containing said compound” (Mediolanum Farmaceutici S.r.L., priority 1978, dated 1980)
# Key:
# [1] = Rogers' nonisothermic method: energies of activation, specific velocities, validity periods; type: physicochemical; conditions: for stability vs 2-thiopropionylglycine (II): comparison of the two compounds
# Experimental: (§1) The stability tests were carried out according to the Rogers' nonisothermic method suitably integrated by the evaluation of physical data, melting point, weight variation, and spectrophotometric assay. For each single compound, the tests were performed on a series of samples, with the weight of 100 milligrams, added for the wet tests with 1 ml of distilled water. […] The sample were kept in a thermostat at increasing temperatures, i.e. from 25° to 80° C. […] The temperature, programmed according to the Rogers' formula, resulted to be 40° C. at the end of the first hour, 50° C. at the end of the second hour, 57° C. at the end of the third hour, 63° C. at the end of the fourth hour, 69° C. at the end of the fifth hour, 73° C. at the end of the sixth hour, 77° C. at the end of the seventh hour and, as already specified, 80° C. at the end of the eighth hour.
# The data shown in Table 7 were worked out according to the Rogers' method, drawing up the values of the energies of activation of the decomposition reactions under dry and wet conditions, the specific rate constants as well as the validity period.
# [2] = test system: bronchopneumopathies of the pediatric age; experiment: Clinical trials in pediatry, mucolytic efficacy in bronchopneumopathies; type: in vivo, man; conditions: decrease from 292.4±92.1 g/Hg, pediatric patients
# [3] = test system: elderly patients; type: in vivo, man
# Experimental: The drug was assessed, with respect to its mucolytic action, on thirty elderly patients ([…], maximal 87, mean age 72). […] The improvement was assessed on the basis of the following parameters:
# decrease of the daily quantity of sputum;
# decrease of the viscosity of the sputum;
# increase of the Tiffeneau's index;
# improved value of the erythrocyte sedimentation rate.
# A group of twenty patients, in the same mean age, was given for control purposes a known drug such as N-acetylcysteine.
# [4] = Stability test: melting point before and after heating; type: physicochemical
# Experimental: as §1
# The melting point was established in a capillary tube, under identical conditions, on the samples No. 5 after heating for 8 hours in the previously specified conditions, and on the samples No. 10 after heating and evaporation to dryness as previously specified.
# [5] = physchem
# Experimental: as §1
# In the case of the wet-treated samples, the final weight was only established on the samples No. 10 brought to dryness at 60° C. under vacuum after an 8-hour heating.
# [6] = test system: bromobenzene poisoning; experiment: Protective activity in the bromobenzene poisoning; type: in vivo, male rats (Sprague-Dawley)
# Experimental: Fifty male rats (Sprague-Dawley, 180-200 g bodyweight) were used for the investigation, subdivided into 5 groups, each consisting of 10 animals, given orally the following compounds
# (1) 5 percent gum arabic in tap water
# (2) 5 percent gum arabic in tap water
# (3) 2-(2-thenoylthio)-propionylglycine--200 mg/kg
# (4) 2-(2-thenoylthio)-propionylglycine--300 mg/kg
# Seven days later, the animals of the groups 2-3-4-[…] were given bromobenzene subcutaneously (150 mg/rat) while the remaining group (control) was given an equivalent volume of saline. Still seven days later, 5 of the animals of each group were given Nembutal (25 mg/kg/intraperitoneally), and the sleeping time was calculated.
# The remaining 5 animals of each group were given bromophthalein at the dose of 50 mg intravenously; thirty minutes later, the animals were sacrificed and both the present bromophthalein and SGPT (serum glutamic pyruvic transaminase) were established in the blood.
# [7] = Solubility and organoleptic properties; type: physicochemical
# [8] = test system: carbon tetrachloride poisoning; experiment: Protective activity in the carbon tetrachloride poisoning; type: in vivo, male rats (Sprague-Dawley)
# Experimental: Fifty male rats (Sprague-Dawley, 180-200 grams bodyweight) were used for the investigation, subdivided into 5 groups: one group was given no treatment while the remaining 4 groups were poisoned for 7 consecutive days with CCl4 at the dosage of […] given subcutaneously.
# [9] = test system: dog; experiment: Chronic toxicity in the dog; type: in vivo; conditions: dogs
# [10] = test system: mercuric chloride; experiment: In vivo protective action against mercurial compounds; set-up: species or system male mice (Swiss strain); conditions: mercuric chloride 20 mg/kg ip, mice, 24 hours
# Experimental: Forty male mice (Swiss strain, 22 grams mean bodyweight) were used for the investigation, subdivided into 4 groups treated as follows:
# (1) mercuric chloride, 20 mg/kg/intraperitoneally;
# (4) mercuric chloride 20 mg/kg/intraperitoneally+2-thiopropionylglycine 300 mg/kg/intraperitoneally.
# Deaths occurred were recorded hourly in the first 5 hours, and thereafter after 24 hours.
compound,measurement,setting,value
"CC(SC(=O)c1cccs1)C(=O)NCC(=O)O (stereo not shown) [compound (I), 2-(2-thenoylthio)-propionylglycine]",stability vs 2-thiopropionylglycine (II),[1]; listed as 2-(2-thenoylthio)-propionyl-glycine (I),markedly better stability
same,stability vs 2-thiopropionylglycine (II),[1]; listed as 2-(2-thenoylthio)-propionylglycine (I),markedly more stable than the correspondent 2-thiopropionylglycine (II)
same,Energy of activation of the decomposition reaction,[1]; dry,12.28 kcal/mol
same,Validity period,[1]; dry,unlimited
same,K at 25° (specific rate constant),"[1]; dry, 25°",0 h⁻¹
same,Energy of activation of the decomposition reaction,[1]; wet,13.27 kcal/mol
same,mean viscosimetric value of the mucus after treatment,[2],155.4±61.3 g/Hg
same,rapidity of action vs N-acetylcysteine,[3]; elderly patients,markedly better in terms of rapidity of action
same,fit of cough on aerosol administration,[3]; in vivo,no fit of cough was observed
same,patients with a marked improvement,"[3]; of thirty elderly patients, two suppositories daily, each 0.36 grams, six days",Twenty-six
same,melting point variation,[4]; after heating,no variations
same,Final m.p. wet conditions (Sample 10),[4]; after heating 8 hours wet and evaporation to dryness,166-167 °C
same,Final m.p. dry conditions (Sample 5),"[4]; after heating for 8 hours, dry",166-167 °C
same,Initial m.p.,[4]; before heating,166-167 °C
same,Content,[5],100.0%
same,E at 292 nm,[5]; as such,0.438
same,remaining at 1.5 h,[5]; dry,99.8%
same,remaining at 3 h,[5]; dry,99.8%
same,remaining at 5.25 h,[5]; dry,100%
same,remaining at 8 h,[5]; dry,99.8%
same,E at 292 nm,"[5]; sample 1, dry",0.440
same,E at 292 nm,"[5]; sample 2, dry",0.435
same,E at 292 nm,"[5]; sample 3, dry",0.440
same,E at 292 nm,"[5]; sample 4, dry",0.440
same,E at 292 nm,"[5]; sample 6, wet",0.455
same,E at 292 nm,"[5]; sample 7, wet",0.450
same,E at 292 nm,"[5]; sample 8, wet",0.435
same,E at 292 nm,"[5]; sample 9, wet",0.412
same,serum concentrations of SGPT,"[6]; oral, 200 and 300 mg/kg, bromobenzene-poisoned rat",significant reduction of the serum concentrations of SGPT
same,liver impairment induced by bromobenzene,"[6]; oral, 200 and 300 mg/kg, rat",able to reduce the liver impairment
same,sleeping time (Nembutal),"[6]; oral, 200 and 300 mg/kg, Nembutal 25 mg/kg ip",statistically significant decrease of the sleeping time
same,rate of excretion of bromophthalein,"[6]; vs poisoned controls, bromophthalein 50 mg iv, 30 minutes",less evident
same,odor,[7],odorless
same,taste,[7],practically tasteless
same,appearance in water,[7]; 100 milligrams with 1 ml of distilled water,white suspension
same,solubility,[7]; all other inorganic solvents (so in the source),scarcely soluble
same,solubility,[7]; chloroform,soluble
same,solubility,[7]; saturated solution of NaHCO3,soluble
same,liver weight increase consequent to CCl4,"[8]; CCl4 0.5 ml/mg sc, 7 days, drugs intramuscularly, (I) 200 and 300 mg/kg, (II) 300 mg/kg",can prevent the liver weight increase
same,efficacy in comparison with 2-mercaptopropionylglycine,"[8]; equivalent dosage, CCl4 poisoning, rat",statistically significant efficacy in preventing the liver weight increase as well as in reducing the liver fats levels
same,chronic toxicity results,[9],optimal
same,deaths,[10]; 200 mg/kg ip,10%
same,deaths,[10]; 300 mg/kg ip,10%
